Test: Doxorubicin cardiotoxicity in mice: blood tests
Excerpt: In particular, well established cardiotoxicity markers, including left ventricular fractional shortening, heart E/A ratio, left ventricular diastolic function, left ventricular dilatation, cardiac output, plasma triglyceride levels, plasma creatine kinase-MB (CK-MB), plasma LDH (lactate dehydrogenase) and plasma brain natriuretic peptide (BNP) were monitored over a period of up to 42 days following the start of treatments delivered weekly, four times (and therefore final treatment on day 21).
Treatments were delivered to mice intravenously on days 0, 7, 14 and 21. Mice underwent echocardiography measurements at days 0, 21 and 42 to determine LVEF, FS, EDV, ESV, CO, E wave, A wave, E′, E/A, and E/E′, and blood samples were taken at days 0, 21 and 42 to assay for cardiac troponin I levels, BNP levels, CK, LDH levels and triglycerides.

In the case of C(=NNC1=NCCN1)c1c2ccccc2c(C=NNC2=NCCN2)c2ccccc12 [bisantrene, 9,10-anthracenedicarboxaldehyde bis [(4,5-dihydro-1H-imidazol-2-yl)hydrazone]], the “plasma CK-MB levels” value (bisantrene 3.67 mg/kg + doxorubicin 5 mg/kg (Dox+Bis 1:1), day 21) is reported as “kept CK-MB levels down at or near the vehicle-only control levels”, the “mitigation of doxorubicin-induced plasma triglyceride increases” value (bisantrene 3.67 mg/kg + doxorubicin 5 mg/kg (Dox+Bis 1:1), day 21 and day 42) is reported as “significant mitigation” and the “mitigation of doxorubicin-induced plasma triglyceride increases” value (bisantrene 5.65 mg/kg + doxorubicin 4 mg/kg (Dox+Bis 80% of 1:2)) is reported as “less effect”. The “plasma CK-MB levels” value (bisantrene 7.33 mg/kg + doxorubicin 5 mg/kg (Dox+Bis 1:2), day 21) was “kept CK-MB levels down at or near the vehicle-only control levels”, the “mitigation of doxorubicin-induced plasma triglyceride increases” value (bisantrene 7.33 mg/kg + doxorubicin 5 mg/kg (Dox+Bis 1:2), day 42) was “significant mitigation” and the “brain natriuretic peptide levels (mitigation of doxorubicin effects)” value (bisantrene 7.33 mg/kg + doxorubicin 5 mg/kg (Dox: Bis 1:2), day 42 or day 21) was “not significant”. The plasma triglycerides (bisantrene 7.33 mg/kg alone, day 21, vs vehicle-only control) was “slight (but insignificant) increase” and the “plasma triglycerides (increase)” value (bisantrene 7.33 mg/kg alone, day 42, vs vehicle-only control) was “not at day 42”.
